Where “and” joins values, the source holds several entries; their conditions need not be identical. Equal values may be shown once. Inconclusive results and toxic doses are left out.
Test system: BDF1 mice, P388 leukemia ip, median survival T/C
Experiment: NCI In Vivo Anticancer Drug Screen. Data for tumor model P388 Leukemia (intraperitoneal) in B6D2F1 (BDF1) mice
Conditions: endpoint: median survival time, higher = longer survival
In short: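 Each value expresses how treatment altered survival: treated-mouse outcome over vehicle-mouse outcome, both groups bearing the transplanted tumour.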

[1] = dose: 25.0 mg/kg/injection, schedule: Q01DX009 (ip), vehicle: saline with Tween-80
[2] = dose: 50.0 mg/kg/injection, schedule: Q01DX009 (ip), vehicle: saline with Tween-80
[3] = dose: 100.0 mg/kg/injection, schedule: Q01DX009 (ip), vehicle: saline with Tween-80
[4] = dose: 50.0 mg/kg/injection, schedule: Q01DX009 (ip), vehicle: saline
[5] = dose: 100.0 mg/kg/injection, schedule: Q01DX009 (ip), vehicle: saline
[6] = dose: 25.0 mg/kg/injection, schedule: Q01DX009 (ip), vehicle: saline

COC1C(O)C(C)OC(OC2C(Oc3cccc4c(O)c5c(=O)oc6ccc(C)c7c(=O)oc(c34)c5c67)OC(C)C(O)C2O)C1O (stereo not given)
T/C (dose: 0.39 mg/kg/injection, schedule: Q01DX009 (ip), vehicle: other): 98 % of control and 121 % of control | T/C (dose: 0.39 mg/kg/injection, schedule: Q01DX009 (oral), vehicle: Klucel (hydroxypropylcellulose) (HPC)): 110 % of control | T/C (dose: 0.78 mg/kg/injection, schedule: Q01DX009 (ip), vehicle: other): 104 % of control | T/C (dose: 0.78 mg/kg/injection, schedule: Q01DX009 (oral), vehicle: Klucel (hydroxypropylcellulose) (HPC)): 100 % of control | T/C (dose: 1.56 mg/kg/injection, schedule: Q01DX009 (ip), vehicle: other): 106 % of control | T/C (dose: 1.56 mg/kg/injection, schedule: Q01DX009 (oral), vehicle: Klucel (hydroxypropylcellulose) (HPC)): 98 % of control and 104 % of control | T/C (dose: 3.12 mg/kg/injection, schedule: Q01DX009 (ip), vehicle: Klucel (hydroxypropylcellulose) (HPC)): 159 % of control | T/C (dose: 3.12 mg/kg/injection, schedule: Q01DX009 (ip), vehicle: other): 159 % of control | T/C (dose: 3.12 mg/kg/injection, schedule: Q01DX009 (oral), vehicle: Klucel (hydroxypropylcellulose) (HPC)): 109 % of control and 110 % of control | T/C (dose: 3.13 mg/kg/injection, schedule: Q01DX009 (ip), vehicle: saline with Tween-80): 162 % of control | T/C (dose: 6.25 mg/kg/injection, schedule: Q01DX009 (ip), vehicle: Klucel (hydroxypropylcellulose) (HPC)): 173 % of control | T/C (dose: 6.25 mg/kg/injection, schedule: Q01DX009 (ip), vehicle: other): 200 % of control | T/C (dose: 6.25 mg/kg/injection, schedule: Q01DX009 (ip), vehicle: saline with Tween-80): 217 % of control | T/C (dose: 6.25 mg/kg/injection, schedule: Q01DX009 (oral), vehicle: Klucel (hydroxypropylcellulose) (HPC)): 101 % of control and 106 % of control | T/C (dose: 8.0 mg/kg/injection, schedule: Q04DX003 (ip), vehicle: saline with Tween-80): 150 % of control | T/C (dose: 12.5 mg/kg/injection, schedule: Q01DX009 (ip), vehicle: Klucel (hydroxypropylcellulose) (HPC)): 209 % of control | T/C (dose: 12.5 mg/kg/injection, schedule: Q01DX009 (ip), vehicle: other): 156 % of control and 165 % of control and 205 % of control | T/C (dose: 12.5 mg/kg/injection, schedule: Q01DX009 (ip), vehicle: saline with Tween-80): 190 % of control and 199 % of control | T/C (dose: 12.5 mg/kg/injection, schedule: Q01DX009 (oral), vehicle: Klucel (hydroxypropylcellulose) (HPC)): 103 % of control and 105 % of control | T/C (dose: 16.0 mg/kg/injection, schedule: Q04DX003 (ip), vehicle: saline with Tween-80): 173 % of control | T/C (dose: 25.0 mg/kg/injection, schedule: Q01DX009 (ip), vehicle: Klucel (hydroxypropylcellulose) (HPC)): 221 % of control | T/C (dose: 25.0 mg/kg/injection, schedule: Q01DX009 (ip), vehicle: other): 167 % of control and 215 % of control | T/C [1]: 236 % of control and 210 % of control | T/C (dose: 25.0 mg/kg/injection, schedule: Q01DX009 (oral), vehicle: Klucel (hydroxypropylcellulose) (HPC)): 100 % of control and 105 % of control | T/C (dose: 32.0 mg/kg/injection, schedule: Q04DX003 (ip), vehicle: saline with Tween-80): 172 % of control | T/C (dose: 43.2 mg/kg/injection, schedule: Q04DX003 (ip), vehicle: Klucel (hydroxypropylcellulose) (HPC)): 170 % of control | T/C (dose: 43.2 mg/kg/injection, schedule: Q04DX003 (ip), vehicle: acid diluted with saline): 153 % of control | T/C (dose: 50.0 mg/kg/injection, schedule: Q01DX009 (ip), vehicle: Klucel (hydroxypropylcellulose) (HPC)): 221 % of control | T/C (dose: 50.0 mg/kg/injection, schedule: Q01DX009 (ip), vehicle: other): 231 % of control and 193 % of control | T/C [2]: 190 % of control | T/C (dose: 50.0 mg/kg/injection, schedule: Q01DX009 (oral), vehicle: Klucel (hydroxypropylcellulose) (HPC)): 103 % of control and 111 % of control | T/C (dose: 64.0 mg/kg/injection, schedule: Q04DX003 (ip), vehicle: saline with Tween-80): 175 % of control | T/C (dose: 72.0 mg/kg/injection, schedule: Q04DX003 (ip), vehicle: Klucel (hydroxypropylcellulose) (HPC)): 173 % of control | T/C (dose: 72.0 mg/kg/injection, schedule: Q04DX003 (ip), vehicle: acid diluted with saline): 173 % of control | T/C (dose: 100.0 mg/kg/injection, schedule: Q01DX009 (ip), vehicle: Klucel (hydroxypropylcellulose) (HPC)): 170 % of control | T/C [3]: 190 % of control and 220 % of control | T/C (dose: 100.0 mg/kg/injection, schedule: Q01DX009 (oral), vehicle: Klucel (hydroxypropylcellulose) (HPC)): 104 % of control | T/C (dose: 120.0 mg/kg/injection, schedule: Q04DX003 (ip), vehicle: Klucel (hydroxypropylcellulose) (HPC)): 184 % of control | T/C (dose: 120.0 mg/kg/injection, schedule: Q04DX003 (ip), vehicle: acid diluted with saline): 180 % of control | T/C (dose: 128.0 mg/kg/injection, schedule: Q04DX003 (ip), vehicle: saline with Tween-80): 182 % of control | T/C (dose: 200.0 mg/kg/injection, schedule: Q01DX009 (oral), vehicle: Klucel (hydroxypropylcellulose) (HPC)): 105 % of control | T/C (dose: 200.0 mg/kg/injection, schedule: Q04DX003 (ip), vehicle: Klucel (hydroxypropylcellulose) (HPC)): 175 % of control | T/C (dose: 200.0 mg/kg/injection, schedule: Q04DX003 (ip), vehicle: acid diluted with saline): 173 % of control

CCOC(=O)CN(C)C#N
T/C [4]: 110 % of control | T/C (dose: 87.5 mg/kg/injection, schedule: Q01DX009 (ip), vehicle: saline): 109 % of control | T/C [5]: 105 % of control | T/C (dose: 100.0 mg/kg/injection, schedule: Q04DX003 (ip), vehicle: saline): 104 % of control | T/C (dose: 175.0 mg/kg/injection, schedule: Q01DX009 (ip), vehicle: saline): 104 % of control | T/C (dose: 200.0 mg/kg/injection, schedule: Q04DX003 (ip), vehicle: saline): 104 % of control | T/C (dose: 265.0 mg/kg/injection, schedule: Q01DX009 (ip), vehicle: saline): 109 % of control | T/C (dose: 400.0 mg/kg/injection, schedule: Q01DX009 (ip), vehicle: saline): 95 % of control | T/C (dose: 400.0 mg/kg/injection, schedule: Q04DX003 (ip), vehicle: saline): 104 % of control

CS(=O)(=O)OCCC#N
T/C [6]: 113 % of control | T/C [4]: 91 % of control and 104 % of control | T/C [5]: 113 % of control | T/C (dose: 100.0 mg/kg/injection, schedule: Q04DX003 (ip), vehicle: alcohol): 110 % of control | T/C (dose: 150.0 mg/kg/injection, schedule: Q01DX009 (ip), vehicle: saline): 95 % of control

O=Cc1ccc(C=O)c(Cl)c1
T/C [1]: 104 % of control | T/C [2]: 90 % of control | T/C (dose: 88.0 mg/kg/injection, schedule: Q04DX003 (ip), vehicle: saline sonified): 105 % of control | T/C [3]: 118 % of control | T/C (dose: 132.0 mg/kg/injection, schedule: Q04DX003 (ip), vehicle: saline sonified): 100 % of control | T/C (dose: 200.0 mg/kg/injection, schedule: Q04DX003 (ip), vehicle: saline sonified): 100 % of control | T/C (dose: 300.0 mg/kg/injection, schedule: Q04DX003 (ip), vehicle: saline sonified): 120 % of control

C1CN1c1nc(N2CC2)nc(N2CC2)n1
T/C (dose: 0.05 mg/kg/injection, schedule: Q01DX009 (ip), vehicle: saline): 175 % of control | T/C (dose: 0.1 mg/kg/injection, schedule: Q01DX009 (ip), vehicle: saline): 115 % of control | T/C (dose: 0.13 mg/kg/injection, schedule: Q01DX010 (ip), vehicle: saline): 109 % of control | T/C (dose: 0.25 mg/kg/injection, schedule: Q01DX010 (ip), vehicle: saline): 150 % of control | T/C (dose: 0.25 mg/kg/injection, schedule: Q01DX010 (ip), vehicle: water): 190 % of control | T/C (dose: 0.4 mg/kg/injection, schedule: Q01DX009 (ip), vehicle: saline): 159 % of control | T/C (dose: 0.5 mg/kg/injection, schedule: Q01DX009 (ip), vehicle: saline): 200 % of control | T/C (dose: 0.5 mg/kg/injection, schedule: Q01DX010 (ip), vehicle: saline): 272 % of control | T/C (dose: 0.5 mg/kg/injection, schedule: Q01DX010 (ip), vehicle: water): 268 % of control | T/C (dose: 0.75 mg/kg/injection, schedule: Q01DX010 (ip), vehicle: water): 268 % of control | T/C (dose: 0.8 mg/kg/injection, schedule: Q01DX009 (ip), vehicle: saline): 86 % of control

CC(CN1CC(=O)NC(=O)C1)N1CC(=O)NC(=O)C1.[Cl-].[Pt+4] (stereo not given)
T/C (dose: 12.5 mg/kg/injection, schedule: Q01DX009 (ip), vehicle: saline): 100 % of control | T/C [6]: 95 % of control and 118 % of control | T/C [4]: 97 % of control | T/C [5]: 91 % of control | T/C (dose: 200.0 mg/kg/injection, schedule: Q01DX009 (ip), vehicle: saline): 105 % of control

Reference: PubChem BioAssay AID328 (DTP/NCI, 2004)
